Measured values as given in patent EP0908457B1, “3-(1,2-benzisothiazol- and isoxazol-5-Y1)-2,4(1H,3H)-pyrimidinedione or thione and 3-(1,2-benzisothiazol- and isoxazol-5-y1)-4(3H)-pyrimidinone or thione herbicidal agents” (BASF AKTIENGESELLSCHAFT, priority 1997, dated 1999).

Legend:
Cyperus iria = assay: Preemergence weed control under flooded paddy conditions, CYPIR (Rice Flatsedge); format: in vivo; details: flooded paddy; on herbicidal effect rating, CYPIR: meaning of each grade not given here
[1] = test system: Oryza sativa, (L.) Tebonnet; assay: Rice tolerance to post-transplant applications under flooded paddy conditions (Example 187), ORYSAT (Rice, Tebonnet); on herbicidal effect rating ORYSAT: meaning of each grade not given here
[2] = test system: Cyperus serotinus, Rottb.; assay: Preemergence weed control under flooded paddy conditions, CYPSE (Flatsedge); format: in vivo; on herbicidal effect rating, CYPSE: meaning of each grade not given here
Sagittaria pygmaea, L. = assay: Preemergence weed control under flooded paddy conditions, SAGPY (Arrowhead (Pygmaea)); format: in vivo; details: flooded paddy; on herbicidal effect rating, SAGPY: meaning of each grade not given here
[3] = test system: Echinochloa oryzoides (Ard.) Fritsch.; assay: Preemergence weed control under flooded paddy conditions, ECHORC (Watergrass (Calif.)); format: in vivo; details: flooded paddy; on herbicidal effect rating, ECHORC: meaning of each grade not given here
[4] = test system: Monochoria vaginalis, Presl.; assay: Preemergence weed control under flooded paddy conditions, MOOVA (Monochoria); format: in vivo; details: flooded paddy; on herbicidal effect rating, MOOVA: meaning of each grade not given here
[5] = Rate 0.0320 kg/ha, preemergence weeds, rated three to four weeks after treatment
[6] = Rate 0.0620 kg/ha, preemergence weeds, rated three to four weeks after treatment
[7] = Rate 0.1250 kg/ha, preemergence weeds, rated three to four weeks after treatment
[8] = Rate 0.2500 kg/ha, preemergence weeds, rated three to four weeks after treatment
[9] = Rate 0.0320 kg/ha, rated three to four weeks after treatment
[10] = Rate 0.0620 kg/ha, rated three to four weeks after treatment
[11] = Rate 0.1250 kg/ha, rated three to four weeks after treatment
[12] = Rate 0.2500 kg/ha, rated three to four weeks after treatment
[13] = Rate 0.0320 kg/ha, preemergence, rated three to four weeks after treatment
[14] = Rate 0.0620 kg/ha, preemergence, rated three to four weeks after treatment
[15] = Rate 0.1250 kg/ha, preemergence, rated three to four weeks after treatment
[16] = Rate 0.2500 kg/ha, preemergence, rated three to four weeks after treatment
[17] = Rate 0.0320 kg/ha, preemergence, rated 3-4 weeks after treatment
[18] = Rate 0.0620 kg/ha, preemergence, rated 3-4 weeks after treatment
[19] = Rate 0.1250 kg/ha, preemergence, rated 3-4 weeks after treatment
[20] = Rate 0.2500 kg/ha, preemergence, rated 3-4 weeks after treatment
[21] = Rate 0.5000 kg/ha, preemergence, rated 3-4 weeks after treatment
[22] = 0.0320 kg/ha, preemergence, rated three to four weeks after treatment
[23] = 0.0620 kg/ha, preemergence, rated three to four weeks after treatment
[24] = 0.1250 kg/ha, preemergence, rated three to four weeks after treatment
[25] = 0.2500 kg/ha, preemergence, rated three to four weeks after treatment

COC(=O)C(C)Oc1cccc(-c2nsc3ccc(-n4c(=O)cc(C(F)(F)F)n(C)c4=O)cc23)c1 (stereo not shown) [Example 325, Propionic acid, 2-{m-{5-[3,6-dihydro-3-methyl-2,6-dioxo-4-(trifluoromethyl)-1-(2H)-pyrimidinyl]-1,2-benzisothiazol-3-yl}phenoxy}-, methyl ester]
herbicidal effect rating, CYPIR (Cyperus iria; [5]): 8.0
herbicidal effect rating, CYPIR (Cyperus iria; [6]): 8.7
herbicidal effect rating, CYPIR (Cyperus iria; [7]): 9.0
herbicidal effect rating, CYPIR (Cyperus iria; [8]): 9.0
herbicidal effect rating ORYSAT [1, 9]: 2.7
herbicidal effect rating ORYSAT [1, 10]: 3.0
herbicidal effect rating ORYSAT [1, 11]: 3.7
herbicidal effect rating ORYSAT [1, 12]: 4.0
herbicidal effect rating, CYPSE [2, 5]: 4.7
herbicidal effect rating, CYPSE [2, 6]: 9.0
herbicidal effect rating, CYPSE [2, 7]: 7.3
herbicidal effect rating, CYPSE [2, 8]: 9.0
herbicidal effect rating, SAGPY (Sagittaria pygmaea, L.; [5]): 4.0
herbicidal effect rating, SAGPY (Sagittaria pygmaea, L.; [6]): 4.3
herbicidal effect rating, SAGPY (Sagittaria pygmaea, L.; [7]): 6.3
herbicidal effect rating, SAGPY (Sagittaria pygmaea, L.; [8]): 9.0
herbicidal effect rating, ECHORC [3, 5]: 7.7
herbicidal effect rating, ECHORC [3, 6]: 9.0
herbicidal effect rating, ECHORC [3, 7]: 9.0
herbicidal effect rating, ECHORC [3, 8]: 9.0
herbicidal effect rating, MOOVA [4, 5]: 8.0
herbicidal effect rating, MOOVA [4, 6]: 9.0
herbicidal effect rating, MOOVA [4, 7]: 9.0
herbicidal effect rating, MOOVA [4, 8]: 9.0

Cn1c(C(F)(F)F)cc(=O)n(-c2ccc3snc(C(C#N)=Cc4cc5ccccc5[nH]4)c3c2)c1=O [Example 601, 1,2-Benzisothiazole-3-acetonitrile, 5-[3,6-dihydro-3-methyl-2,6-dioxo-4-(trifluoromethyl)-1(2H)-pyrimidinyl]-alpha-(indol-2-ylmethylene)-]
herbicidal effect rating, CYPIR (Cyperus iria; [13]): 0.0
herbicidal effect rating, CYPIR (Cyperus iria; [14]): 0.0
herbicidal effect rating, CYPIR (Cyperus iria; [15]): 4.0
herbicidal effect rating, CYPIR (Cyperus iria; [16]): 4.0
herbicidal effect rating ORYSAT [1, 9]: 4.0
herbicidal effect rating ORYSAT [1, 10]: 5.0
herbicidal effect rating ORYSAT [1, 11]: 6.0
herbicidal effect rating ORYSAT [1, 12]: 7.0
herbicidal effect rating, CYPSE [2, 13]: 0.0
herbicidal effect rating, CYPSE [2, 14]: 0.0
herbicidal effect rating, CYPSE [2, 15]: 0.0
herbicidal effect rating, CYPSE [2, 16]: 3.0
herbicidal effect rating, SAGPY (Sagittaria pygmaea, L.; [13]): 0.0
herbicidal effect rating, SAGPY (Sagittaria pygmaea, L.; [14]): 0.0
herbicidal effect rating, SAGPY (Sagittaria pygmaea, L.; [15]): 0.0
herbicidal effect rating, SAGPY (Sagittaria pygmaea, L.; [16]): 0.0
herbicidal effect rating, ECHORC [3, 13]: 0.0
herbicidal effect rating, ECHORC [3, 14]: 0.0
herbicidal effect rating, ECHORC [3, 15]: 2.0
herbicidal effect rating, ECHORC [3, 16]: 6.0
herbicidal effect rating, MOOVA [4, 13]: 6.0
herbicidal effect rating, MOOVA [4, 14]: 7.0
herbicidal effect rating, MOOVA [4, 15]: 9.0
herbicidal effect rating, MOOVA [4, 16]: 9.0

Cn1c(C(F)(F)F)cc(=O)n(-c2cc3c(CC#N)nsc3cc2F)c1=O [Example 379, 1,2-Benzisothiazole-3-acetonitrile, 5-[3,6-dihydro-3-methyl-2,6-dioxo-4-(trifluoromethyl)-1(2H)-pyrimidinyl]-6-fluoro-]
herbicidal effect rating, CYPIR (Cyperus iria; [13]): 5.5
herbicidal effect rating, CYPIR (Cyperus iria; [14]): 7.5
herbicidal effect rating, CYPIR (Cyperus iria; [15]): 9.0
herbicidal effect rating, CYPIR (Cyperus iria; [16]): 9.0
herbicidal effect rating ORYSAT [1, 9]: 7.0
herbicidal effect rating ORYSAT [1, 10]: 8.5
herbicidal effect rating ORYSAT [1, 11]: 9.0
herbicidal effect rating ORYSAT [1, 12]: 9.0
herbicidal effect rating, CYPSE [2, 13]: 2.5
herbicidal effect rating, CYPSE [2, 14]: 6.5
herbicidal effect rating, CYPSE [2, 15]: 8.5
herbicidal effect rating, CYPSE [2, 16]: 8.5
herbicidal effect rating, SAGPY (Sagittaria pygmaea, L.; [13]): 3.5
herbicidal effect rating, SAGPY (Sagittaria pygmaea, L.; [14]): 6.5
herbicidal effect rating, SAGPY (Sagittaria pygmaea, L.; [15]): 9.0
herbicidal effect rating, SAGPY (Sagittaria pygmaea, L.; [16]): 9.0
herbicidal effect rating, ECHORC [3, 13]: 2.0
herbicidal effect rating, ECHORC [3, 14]: 5.0
herbicidal effect rating, ECHORC [3, 15]: 7.5
herbicidal effect rating, ECHORC [3, 16]: 8.0
herbicidal effect rating, MOOVA [4, 13]: 9.0
herbicidal effect rating, MOOVA [4, 14]: 9.0
herbicidal effect rating, MOOVA [4, 15]: 9.0
herbicidal effect rating, MOOVA [4, 16]: 9.0

CNC(=O)COc1ccc(C)cc1-c1nsc2ccc(-n3c(=O)cc(C(F)(F)F)n(C)c3=O)cc12 [Example 561, Acetamide, 2-{{2-{5-[3,6-dihydro-3-methyl-2,6-dioxo-4-(trifluoromethyl)-1(2H)-pyrimidinyl]-1,2-benzisothiazol-3-yl}-p-tolyl}oxy}-N-methyl-]
herbicidal effect rating, CYPIR (Cyperus iria; [17]): 3.0
herbicidal effect rating, CYPIR (Cyperus iria; [18]): 6.0
herbicidal effect rating, CYPIR (Cyperus iria; [19]): 8.5
herbicidal effect rating, CYPIR (Cyperus iria; [20]): 9.0
herbicidal effect rating, CYPIR (Cyperus iria; [21]): 6.0
herbicidal effect rating ORYSAT ([1]; Rate 0.0320 kg/ha, rated 3-4 weeks after treatment): 2.5
herbicidal effect rating ORYSAT ([1]; Rate 0.0620 kg/ha, rated 3-4 weeks after treatment): 4.0
herbicidal effect rating ORYSAT ([1]; Rate 0.1250 kg/ha, rated 3-4 weeks after treatment): 3.5
herbicidal effect rating ORYSAT ([1]; Rate 0.2500 kg/ha, rated 3-4 weeks after treatment): 4.5
herbicidal effect rating ORYSAT ([1]; Rate 0.5000 kg/ha, rated 3-4 weeks after treatment): 2.0
herbicidal effect rating, CYPSE [2, 17]: 0.0
herbicidal effect rating, CYPSE [2, 18]: 0.0
herbicidal effect rating, CYPSE [2, 19]: 0.0
herbicidal effect rating, CYPSE [2, 20]: 0.0
herbicidal effect rating, CYPSE [2, 21]: 9.0
herbicidal effect rating, SAGPY (Sagittaria pygmaea, L.; [17]): 0.0
herbicidal effect rating, SAGPY (Sagittaria pygmaea, L.; [18]): 0.0
herbicidal effect rating, SAGPY (Sagittaria pygmaea, L.; [19]): 1.0
herbicidal effect rating, SAGPY (Sagittaria pygmaea, L.; [20]): 3.0
herbicidal effect rating, SAGPY (Sagittaria pygmaea, L.; [21]): 0.0
herbicidal effect rating, ECHORC [3, 17]: 3.6
herbicidal effect rating, ECHORC [3, 18]: 4.8
herbicidal effect rating, ECHORC [3, 19]: 6.4
herbicidal effect rating, ECHORC [3, 20]: 9.0
herbicidal effect rating, ECHORC [3, 21]: 9.0
herbicidal effect rating, MOOVA [4, 17]: 9.0
herbicidal effect rating, MOOVA [4, 18]: 9.0
herbicidal effect rating, MOOVA [4, 19]: 9.0
herbicidal effect rating, MOOVA [4, 20]: 9.0
herbicidal effect rating, MOOVA [4, 21]: 9.0

CC(=O)/C=C/c1nsc2ccc(-n3c(=O)cc(C(F)(F)F)n(C)c3=O)cc12 [Example 285, 2,4(1H,3H)-Pyrimidinedione, 1-methyl-3-[3-(3-oxo-1-butenyl)-1,2-benzisothiazol-5-yl]-6-(trifluoromethyl)-, (E)-]
CYPIR herbicidal effect rating (Cyperus iria; [13]): 5.0
CYPIR herbicidal effect rating (Cyperus iria; [14]): 9.0
CYPIR herbicidal effect rating (Cyperus iria; [15]): 9.0
CYPIR herbicidal effect rating (Cyperus iria; [16]): 9.0
ORYSAT herbicidal effect rating [1, 9]: 3.0
ORYSAT herbicidal effect rating [1, 10]: 7.0
ORYSAT herbicidal effect rating [1, 11]: 7.0
ORYSAT herbicidal effect rating [1, 12]: 7.0
CYPSE herbicidal effect rating [2, 13]: 0.0
CYPSE herbicidal effect rating [2, 14]: 0.0
CYPSE herbicidal effect rating [2, 15]: 0.0
CYPSE herbicidal effect rating [2, 16]: 0.0
SAGPY herbicidal effect rating (Sagittaria pygmaea, L.; [13]): 0.0
SAGPY herbicidal effect rating (Sagittaria pygmaea, L.; [14]): 0.0
SAGPY herbicidal effect rating (Sagittaria pygmaea, L.; [15]): 0.0
SAGPY herbicidal effect rating (Sagittaria pygmaea, L.; [16]): 3.0
ECHORC herbicidal effect rating [3, 13]: 3.0
ECHORC herbicidal effect rating [3, 14]: 7.0
ECHORC herbicidal effect rating [3, 15]: 7.0
ECHORC herbicidal effect rating [3, 16]: 7.0
MOOVA herbicidal effect rating [4, 13]: 4.0
MOOVA herbicidal effect rating [4, 14]: 9.0
MOOVA herbicidal effect rating [4, 15]: 9.0
MOOVA herbicidal effect rating [4, 16]: 9.0

Cn1c(C(F)(F)F)cc(=O)n(-c2ccc3snc(COCOCc4ccccc4)c3c2)c1=O [Example 461, 2,4(1H,3H)-Pyrimidinedione, 3-{3-{[(benzyloxy)-methoxy]methyl}-1,2-benzisothiazol-5-yl}-1-methyl-6-(trifluoromethyl)-]
CYPIR herbicidal rating (Cyperus iria; [22]): 6.0
CYPIR herbicidal rating (Cyperus iria; [23]): 9.0
CYPIR herbicidal rating (Cyperus iria; [24]): 9.0
CYPIR herbicidal rating (Cyperus iria; [25]): 9.0
ORYSAT herbicidal rating (rice tolerance) ([1]; 0.0320 kg/ha, rated three to four weeks after treatment): 5.0
ORYSAT herbicidal rating (rice tolerance) ([1]; 0.0620 kg/ha, rated three to four weeks after treatment): 5.0
ORYSAT herbicidal rating (rice tolerance) ([1]; 0.1250 kg/ha, rated three to four weeks after treatment): 5.0
ORYSAT herbicidal rating (rice tolerance) ([1]; 0.2500 kg/ha, rated three to four weeks after treatment): 6.0
CYPSE herbicidal rating [2, 22]: 0.0
CYPSE herbicidal rating [2, 25]: 7.0
SAGPY herbicidal rating (Sagittaria pygmaea, L.; [22]): 2.0
SAGPY herbicidal rating (Sagittaria pygmaea, L.; [23]): 3.0
SAGPY herbicidal rating (Sagittaria pygmaea, L.; [24]): 4.0
SAGPY herbicidal rating (Sagittaria pygmaea, L.; [25]): 6.0
ECHORC herbicidal rating [3, 22]: 9.0
ECHORC herbicidal rating [3, 23]: 9.0
ECHORC herbicidal rating [3, 24]: 9.0
ECHORC herbicidal rating [3, 25]: 9.0
MOOVA herbicidal rating [4, 22]: 7.0
MOOVA herbicidal rating [4, 23]: 7.0
MOOVA herbicidal rating [4, 24]: 9.0
MOOVA herbicidal rating [4, 25]: 9.0
